From paper PMC9861386, “N-Heterocyclic Carbene-Iridium Complexes as Photosensitizers for In Vitro Photodynamic Therapy to Trigger Non-Apoptotic Cell Death in Cancer Cells” (Molecules, 2023)

How the values were obtained:
MCF7/FasR cells = test: Cell death with or without pan-caspase inhibitor z-VAD-fmk, MTT; format: cell-based, human; conditions: 500 nM complex, 10 µM z-VAD-fmk, 458 nm irradiation, 72 h
Excerpt: To determine the mechanism of cell death, we used MCF7 cells transfected to express the human Fas receptor (FasR) or doubly transfected to express the human Fas receptor and human Bcl-xL [75]. Since MCF7 cells express the TNF receptor endogenously, this allowed the study of both Fas- and TNFα-mediated apoptosis in the same cell model to assess whether cell death was dependent on the Bcl-2 family of mitochondrial proteins such as Bcl-xL. […] This is consistent with findings that death receptors such as FasR and TNFR can mediate apoptosis through both the extrinsic pathway (mitochondria-independent by directly activating executioner caspases via upstream caspase-8) and the intrinsic (mitochondrial) pathway controlled by the Bcl-2 family of proteins.
We next evaluated the effect of the pan-caspase inhibitor z-VAD-fmk on caspase signaling. As expected, the treatment with z-VAD-fmk rendered MCF7/FasR cells resistant to TNFα-induced PARP and caspase-7 processing (Figure 14A) and to the loss of cell viability (Figure 14B).
A tetrazolium-based MTT reagent (3-(4,5-dimethylthiazol-2-yl)-2,5-diphenyltetrazolium bromide) was used to determine cell viability, as previously described. After 72 h of treatment at 37 °C and 5% CO2, cells were incubated with 25 μL MTT solution (5 mg/mL; Sigma-Aldrich) for 4 h. After solubilization with 500 μL of lysis buffer (DMSO), formazan was quantified by spectrophotometry with a microplate reader at 570 nm absorbance (ClarioSTAR, BMG LabTech, Champigny-sur-Marne, France). […] All results were calculated from data obtained in at least three independent experiments.
Figure 11 Bcl-xL and z-VAD-fmk inhibited by Fas- or TNFα-induced cell death in MCF7 cells. […] Cell death was assessed by MTT assay. […]
Figure 14 Evaluation of apoptotic biomarkers. […] (B) Cell viability was evaluated in duplicate samples. Data are expressed as percent (%) of untreated cells and are the means of 3 independent experiments (***, p < 0.0001, NS, not significant).

[1] = tested on: MCF7/FasR and MCF7/FasR/Bcl-xL cells; test: GSH quantification (GSH-Glo); format: cell-based, human; conditions: complex 4a all doses with 458 nm irradiation; TNFα 100 ng/mL; 72 h
Protocol: ATP and glutathione (GSH) contents were measured with the Promega CellTiter-Glo (Cat#G7570) and GSH-Glo (cat#6911) luminescent assays, respectively, according to the manufacturer’s recommendations.
Figure 13 Evaluation of apoptotic biomarkers. MCF7/FasR and MCF7/FasR/Bcl-xL cells were irradiated at 458 nm in presence of the indicated concentration of complex 4a or treated with […] TNFα for 72 h. (A) Cytosolic extracts from MCF7/FasR and MCF7/FasR/Bcl-xL cells were separated by SDS-PAGE and probed with anti-PARP, anti-caspase-7 and anti-caspase-8. Migrations indicated are: full-length PARP p113, cleaved PARP p89, full-length caspase-7 and full-length caspase-8. (B) MTT, ATP and GSH assays were evaluated in duplicate samples. Data are expressed as percent (%) of untreated cells and are the means of 3 independent experiments (***, p < 0.0001, NS, not significant).

## CC(C)[n+]1ccn2[c]1[Ir-3]13([c]4ccccc4-c4cccc[n+]41)([c]1ccccc1-c1cccc[n+]13)[c]1n(cc[n+]1C(C)C)C2.F[P-](F)(F)(F)(F)F [Complex 4a]
MCF7/FasR cells
  effect of z-VAD-fmk on cell death induced by the complex: could not prevent cell death
[1]
  level of reduced GSH: decreased
